Reference: patent publication US20240423961A1, “1H-1,2,3-TRIAZOLE-4-CARBOXYLIC ACIDS FOR TREATMENT OF HYPEROXALURIA AND KIDNEY STONES” (CANTERO THERAPEUTICS, INC., priority 2021, published 2024)
Where two headings read alike, the source gives them in different places.

Experiment: Phase 1 SAD/MAD study: plasma pharmacokinetics of Compound 1a (LC-MS-MS, noncompartmental analysis)
Assay type: in vivo, human
Conditions: for AUC(0-t) / Cmax / Tmax / half-life / AUC(0-inf): human, plasma
Description: Pharmacokinetics: Human K2-ethylenediaminetetraacetic acid (K2-EDTA) plasma samples were analyzed for Compound 1a by a validated method over a range of 1.0 to 1000 ng/mL based on the analysis of 100 μL of sample. Human plasma containing Compound 1a and the internal standard, Compound 1a-D4, was extracted using liquid-liquid extraction and analyzed by a Sciex API 4000 LC-MS-MS equipped with an HPLC column. The peak area of the m/z 370.2→298.0 Compound 1a product ion was measured against the peak area of the m/z 374.3→302.4 Compound 1a-D4 internal standard product ion. Quantitation was performed using a weighted 1/x^2 linear least squares regression analysis generated from calibration standards prepared on the day of extraction.
Pharmacokinetic analysis: Pharmacokinetic calculations based on Compound 1a plasma concentrations were performed using noncompartmental analysis in Phoenix WinNonlin (Certara, Princeton, New Jersey). […] Accumulation ratio based on Cmax was calculated as (Cmax,day 7)/(Cmax, day 1).
Subject disposition: Six cohorts of 6 to 8 subjects each (N=up to 48) were administered single doses of 40, 120, 360, 1,000, 2,000, and 3,000 mg of Compound 1a in Part A under fasting conditions. Following a 2-week washout, subjects in the 1,000 mg cohort were administered a second 1,000 mg single dose following a high-fat breakfast. Six cohorts of 8 healthy subjects each were administered multiple doses of 75 mg […] (qd), 125 mg every 12 hours (q12 h), 500 mg q12 h, 500 mg qd, 750 mg qd, and 1,000 mg qd for 7 days in the MAD Part B (FIG. 1).

[1] = po, 40 mg, SAD 40 mg oral, fasted, average
[2] = po, 120 mg, SAD 120 mg oral, fasted, average
[3] = po, 360 mg, SAD 360 mg oral, fasted, average
[4] = po, 1000 mg, SAD 1,000 mg oral, fasted, average
[5] = po, 1000 mg, SAD 1,000 mg oral, fed, average
[6] = po, 2000 mg, SAD 2,000 mg oral, fasted, average
[7] = po, 3000 mg, SAD 3,000 mg oral, fasted, average

O.O=C([O-])c1nn[nH]c1Oc1ccc(-c2ccc(C3CC(F)(F)C3)cc2)cc1.[Na+] [Compound 1a, sodium 5-((4′-(3,3-difluorocyclobutyl)-[1,1′-biphenyl]-4-yl)oxy)-1H-1,2,3-triazole-4-carboxylate monohydrate] gave an AUC(0-t) (oral, 2000 mg, single dose 2000 mg, healthy volunteers, geometric mean, read-out: AUClast) of 312 µg·h/mL, a Cmax (oral, 3000 mg, single dose 3000 mg, healthy volunteers, geometric mean) of 22500 ng/mL and a Tmax (oral, 3000 mg, single dose 3000 mg, healthy volunteers, geometric mean (geometric CV %), read-out: Tmax) of 2.9 h. For the same molecule, the half-life (oral, 3000 mg, single dose 3000 mg, healthy volunteers, geometric mean (geometric CV %), read-out: t1/2 (converted)) was 34 h, the AUC(0-t) (oral, 3000 mg, single dose 3000 mg, healthy volunteers, geometric mean, read-out: AUClast) was 225 µg·h/mL and the Tmax (oral, single-dose administration of 40 mg to 3,000 mg, read-out: average plasma Tmax values across dose levels) was 1.9 to 2.9 h. It also gave a half-life (oral, single-dose administration of 40 mg to 3,000 mg, read-out: average t1/2 across dose levels) of 21.9 to 33.7 h, an AUC(0-inf) [1] of 14 µg·h/mL and a Cmax [1] of 2040 ng/mL. For the same molecule, the AUC(0-t) (po, 40 mg, SAD 40 mg oral, fasted, average, read-out: AUC0-24) was 12.1 µg·h/mL, the Tmax (po, 40 mg, SAD 40 mg oral, fasted, average, read-out: Tmax) was 1.89 h and the half-life (po, 40 mg, SAD 40 mg oral, fasted, average, read-out: t1/2 (converted)) was 24.6 h. The AUC(0-inf) [2] was 41.4 µg·h/mL, the Cmax [2] was 5020 ng/mL and the half-life (po, 120 mg, SAD 120 mg oral, fasted, average, plasma (N = 5), read-out: t1/2 (converted)) was 21.9 h. It also gave an AUC(0-t) (po, 120 mg, SAD 120 mg oral, fasted, average, read-out: AUC0-24) of 36.7 µg·h/mL, a Tmax (po, 120 mg, SAD 120 mg oral, fasted, average, read-out: Tmax) of 2.29 h and an AUC(0-inf) [3] of 83.3 µg·h/mL. The Cmax [3] was 10500 ng/mL, the AUC(0-t) (po, 360 mg, SAD 360 mg oral, fasted, average, read-out: AUC0-24) was 74.1 µg·h/mL and the Tmax (po, 360 mg, SAD 360 mg oral, fasted, average, read-out: Tmax) was 2.28 h. It also gave a half-life (po, 360 mg, SAD 360 mg oral, fasted, average, read-out: t1/2 (converted)) of 25.9 h, an AUC(0-inf) [4] of 214 µg·h/mL and a Cmax [4] of 19500 ng/mL. For the same molecule, the AUC(0-t) (po, 1000 mg, SAD 1,000 mg oral, fasted, average, read-out: AUC0-24) was 174 µg·h/mL, the Tmax (po, 1000 mg, SAD 1,000 mg oral, fasted, average, read-out: Tmax) was 3 h and the half-life (po, 1000 mg, SAD 1,000 mg oral, fasted, average, read-out: t1/2 (converted)) was 26.8 h. It also gave an AUC(0-inf) [5] of 237 µg·h/mL, a Cmax [5] of 14700 ng/mL and an AUC(0-t) (po, 1000 mg, SAD 1,000 mg oral, fed, average, read-out: AUC0-24) of 180 µg·h/mL. For the same molecule, the Tmax (po, 1000 mg, SAD 1,000 mg oral, fed, average, read-out: Tmax) was 5.86 h, the half-life (po, 1000 mg, SAD 1,000 mg oral, fed, average, read-out: t1/2 (converted)) was 25.2 h and the AUC(0-inf) [6] was 312 µg·h/mL. For the same molecule, the Cmax [6] was 25600 ng/mL, the AUC(0-t) (po, 2000 mg, SAD 2,000 mg oral, fasted, average, read-out: AUC0-24) was 253 µg·h/mL and the Tmax (po, 2000 mg, SAD 2,000 mg oral, fasted, average, read-out: Tmax) was 2.94 h. It also gave a half-life (po, 2000 mg, SAD 2,000 mg oral, fasted, average, read-out: t1/2 (converted)) of 23.4 h, an AUC(0-inf) [7] of 226 µg·h/mL and a Cmax [7] of 22500 ng/mL. The AUC(0-t) (po, 3000 mg, SAD 3,000 mg oral, fasted, average, read-out: AUC0-24) was 184 µg·h/mL, the Tmax (po, 3000 mg, SAD 3,000 mg oral, fasted, average, read-out: Tmax) was 2.94 h and the half-life (po, 3000 mg, SAD 3,000 mg oral, fasted, average, read-out: t1/2 (converted)) was 33.7 h. For the same molecule, the “Overall exposure, fed versus fasted (food effect)” value (single dose of 1,000 mg, same cohort, 2-week washout) was “slightly lower under fed than under fasted conditions”.
